Read-outs that look alike come from different tables or passages of the source.
Legend:
[1] = tested on: primary human lung cancer LUF1656 xenograft; type: in vivo; details: PO, QD × 21 Days; for T/C (%): Day 21; for Tumor Size (mm^3) at Day 21 of Treatment: Mean ± SEM
Experimental: (§1) The in-vivo antitumor activity of the phosphatidylinositol-3-kinase inhibitor compound COMPOUND B in combination with either the anaplastic lymphoma kinase inhibitor COMPOUND D or crizotinib is evaluated in the treatment of subcutaneous primary human lung cancer LUF1656 xenograft models in nu/nu mice.
(§2) Experiments are performed with female Mus Musculus nu/nu mice (Vital River Laboratories, China) approximately 7-8 weeks of age and 19-24 g body weight at treatment start. All animals are housed in laminar flow rooms at constant temperature (approximately 20-26° C.) and humidity (approximately 40-70%) with 4 or 5 animals in each cage. All animals have free access to irradiation sterilized dry granule food and sterile drinking water. Animals are divided into groups of 10 animals per group.
COMPOUND B in form of its monohydrochloride salt (Novartis) is obtained as a powder and stored at −20° C. 323.3 mg of COMPOUND B monohydrochoride (equivalent to 294 mg of free base) is formulated in 21 ml of 1% Tween 80 and 21 ml 1% methylcellulose (M-0512). COMPOUND B is first sonicated in the 1% Tween 80 and then mixed with the 1% methylcellulose and then stirred for 1 hour and sonicated for 5 minutes to formulate a solution having a COMPOUND B concentration of 7 mg/ml. For this experiment, the COMPOUND B monohydrochloride salt is referred to as “COMPOUND B”.
(§3) COMPOUND D in the form of its salt (Novartis) is obtained as a powder and stored at −20° C. 388 mg of COMPOUND D salt (equivalents to 330 mg of free base) is suspended in 33 ml of 0.5% methylcellulose (M-0512) and 0.5% Tween, is sonicated and then is vortexed to formulate a solution having a COMPOUND D concentration of 10 mg/ml. Additionally, 11 ml of this 10 mg/ml concentration solution is diluted with 11 ml 0.5% methylcellulose and 0.5% Tween 80 and vortexted to form a second solution having a COMPOUND D concentration of 5 mg/ml. For this experiment, the COMPOUND D salt is referred to as “COMPOUND D”.
Crizotinib is obtained as a powder and stored at −20° C. 220 mg of crizotinib is suspended in 22 ml 0.5% methylcellulose (MC) and sonicated to form a solution having a crizotinib concentration of 10 mg/ml. This solution can be stored at 4° C. for 1 week and protected from light.
Tumor fragments from stock mice inoculated with LUF1656 primary human lung cancer cells (Crown Bio, China) are harvested and used for inoculation into the nu/nu mice. Each mouse is inoculated subcutaneously at the right flank with one tumor fragment (2-3 mm in diameter) for tumor development. The treatments are started when mean tumor size reach approximately 135 mm^3. Animals are routinely monitored and body weight measured twice weekly. Death and observed clinical signs are recorded on the basis of the number of animals within each subset. Animals observed to be in a continuing deteriorating condition or for which the tumor size of individual animal exceeds 1/10 of the body weight are euthanized prior to death or before comatose.
Tumor size is measured twice weekly in two dimensions using a caliper and the volume is expressed in mm^3 using the formula: V=0.5 a×b^2, wherein a and b are the long and short diameters of the tumor respectively. The tumor size is then used for calculation of both T-C and T/C values. T-C is calculated with T as the time (days) required for the mean tumor size of the treatment group to reach a predetermined size (e.g., 400 mm^3) and C is the time (in days) for the mean tumor size of the control group to reach the same size. T/C value (in percent is an indication of the anti-tumor effectiveness; T and C are the mean volume of the treated and control groups, respectively, on a given day.
Summary statistics are provided for the tumor volume of each group at each time point.

[2] = tested on: primary human lung cancer LU1656 xenograft; test: In-vivo antitumor activity, subcutaneous LU1656 xenograft, first and second phase (Example 3); details: for T-C (days) at 500 mm^3 / T/C (%) / Tumor Size (mm^3) at Day 61 Post Tumor Implantation / Tumor Size (mm^3) at Day 50 Post Tumor Implantation: p.o.; for Tumor Size (mm^3) at Day 61 Post Tumor Implantation / Tumor Size (mm^3) at Day 50 Post Tumor Implantation: Mean ± SEM
Experimental: as §1, with “activity […]” for “activity”, “B in combination with either the anaplastic lymphoma kinase inhibitor COMPOUND D or crizotinib and (b) of the phosphatidylinositol-3-kinase inhibitor compound COMPOUND C” for “B”, “LU1656” for “LUF1656”
as §2, with “water.” for “water. Animals are divided into groups of 10 animals per group.”
Animals are divided into 9 groups.
COMPOUND B in form of its monohydrochloride salt (Novartis) is obtained as a powder and stored at −20° C. 99.1 mg of COMPOUND B monohydrochoride (equivalent to 91 mg of free base) is formulated in 6.5 ml of 1% Tween 80 and 6.5 ml 1% methylcellulose (M-0512). COMPOUND B is first sonicated in the 1% Tween 80 and then mixed with the 1% methylcellulose and then stirred for 1 hour and sonicated for 5 minutes to formulate a solution having a COMPOUND B concentration of 7 mg/ml. For this experiment, the COMPOUND B monohydrochloride salt is referred to as “COMPOUND B”.
COMPOUND C is obtained as a powder and stored at 4° C. A vehicle is formulated by dissolving 2 g of CMC sodium salt powder low density in 198 ml of sterile water, mixing using a magnetic beater and heating (about 50° C.), adding 1 ml Tween 80, adjusting the pH to 7.6 using NaOh/HCl, and completing the volume to 200 ml. 84 mg of COMPOUND C is suspended in 3.5 ml of this vehicle and stirred/vortexed until homogenous; another 3.5 ml of this vehicle is added and homogenized; and another 7 ml of this vehicle is added and homogenized. To reduce particle size, this solution is sonicated for 1 hour using a sonication probe while cooling in an ice bath. The solution is having a COMPOUND C concentration of 6 mg/ml.
as §3
COMPOUND C is obtained as a powder and stored at 4° C. A vehicle is formulated by dissolving 2 g of CMC sodium salt powder low density in 198 ml of sterile water, mixing using a magnetic beater and heating (about 50° C.), adding 1 ml Tween 80, adjusting the pH to 7.6 using NaOh/HCl, and completing the volume to 200 ml.

[3] = second phase, Group 9: Crizotinib 50 mg/kg, QD × 40
[4] = first phase, Group 4: COMPOUND C 30 mg/kg, QD × 35
[5] = first phase, Group 3: COMPOUND D 50 mg/kg, QD × 40
[6] = second phase, Group 8: COMPOUND D 25 mg/kg, QD × 40

SMILES: Nc1cc(C(F)(F)F)c(-c2cc(N3CCOCC3)nc(N3CCOCC3)n2)cn1 [COMPOUND B, 5-(2,6-di-morpholin-4-yl-pyrimidin-4-yl)-4-trifluoromethyl-pyridin-2-ylamine]
- T/C (%) ([1]; Group 3: COMPOUND B 35 mg/kg): 30.1%
- Tumor Size (mm^3) at Day 21 of Treatment ([1]; Group 3: COMPOUND B 35 mg/kg): 365.4 mm^3

SMILES: C[C@@H](Oc1cc(-c2cnn(C3CCNCC3)c2)cnc1N)c1c(Cl)ccc(F)c1Cl [Crizotinib, reference compound]
- T-C (days) at 400 mm^3 ([1]; Group 6: Crizotinib 50 mg/kg): 7 days
- T/C (%) ([1]; Group 6: Crizotinib 50 mg/kg): 37.1%
- Tumor Size (mm^3) at Day 21 of Treatment ([1]; Group 6: Crizotinib 50 mg/kg, from 9 animals' data (one outlier removed)): 450.8 ± mm^3
- T-C (days) at 500 mm^3 [2, 3]: 14 days
- T/C (%) ([2]; second phase, Group 9: Crizotinib 50 mg/kg, QD × 40, Day 61): 24.7%
- Tumor Size (mm^3) at Day 61 Post Tumor Implantation [2, 3]: 520.4 mm^3
- antitumor activity compared with vehicle control ([2]; second phase, Crizotinib 50 mg/kg, PO, QD×40, Day 47 to Day 61 after tumor implantation, p<0.01 or p<0.001 at different days): significant antitumor activity

SMILES: Cc1nc(NC(=O)N2CCC[C@H]2C(N)=O)sc1-c1ccnc(C(C)(C)C(F)(F)F)c1 [COMPOUND C, (S)-Pyrrolidine-1,2-dicarboxylic acid 2-amide 1-({4-methyl-5-[2-(2,2,2-trifluoro-1,1-dimethyl-ethyl)-pyridin-4-yl]-thiazol-2-yl}-amide)]
- antitumor activity against the LU1656 xenograft model (summary) ([2]; COMPOUND C at 30 mg/kg as a single agent): significant antitumor activity
- T-C (days) at 500 mm^3 [2, 4]: 11 days
- T/C (%) ([2]; first phase, Group 4: COMPOUND C 30 mg/kg, QD × 35, Day 50): 36.0%
- Tumor Size (mm^3) at Day 50 Post Tumor Implantation [2, 4]: 752.5 mm^3

SMILES: Cc1cc(Nc2ncc(Cl)c(Nc3ccccc3S(=O)(=O)C(C)C)n2)c(OC(C)C)cc1C1CCNCC1 [COMPOUND D, 5-Chloro-N2-(2-isopropoxy-5-methyl-4-piperidin-4-yl-phenyl)-N4-[2-(propane-2-sulfonyl)-phenyl]-pyrimidine-2,4-diamine]
- T/C (%) ([1]; Group 7: COMPOUND D 25 mg/kg): 16.1%
- Tumor Size (mm^3) at Day 21 of Treatment ([1]; Group 7: COMPOUND D 25 mg/kg): 194.9 mm^3
- T/C (%) ([1]; Group 8: COMPOUND D 50 mg/kg): 17.6%
- Tumor Size (mm^3) at Day 21 of Treatment ([1]; Group 8: COMPOUND D 50 mg/kg): 213.6 mm^3
- antitumor activity against the LU1656 xenograft model (summary) ([2]; COMPOUND D at 25 mg/kg as a single agent): significant antitumor activity
- antitumor activity against the LU1656 xenograft model (summary) ([2]; COMPOUND D at 50 mg/kg as a single agent): significant antitumor activity
- T-C (days) at 500 mm^3 [2, 5]: 40 days
- T/C (%) ([2]; first phase, Group 3: COMPOUND D 50 mg/kg, QD × 40, Day 50): 10.4%
- Tumor Size (mm^3) at Day 50 Post Tumor Implantation [2, 5]: 218.2 mm^3
- T-C (days) at 500 mm^3 [2, 6]: 34 days
- T/C (%) ([2]; second phase, Group 8: COMPOUND D 25 mg/kg, QD × 40, Day 61): 14.6%
- Tumor Size (mm^3) at Day 61 Post Tumor Implantation [2, 6]: 307.4 mm^3
- antitumor activity compared to Crizotinib (50 mg/kg) monotherapy ([2]; second phase, COMPOUND D 25 mg/kg monotherapy, Day 64 to Day 82, p<0.05 or p<0.01 at different days): significantly improved
